From US20260098026A1, “M4 ACTIVATORS/MODULATORS AND USES THEREOF” (Cerevel Therapeutics, LLC, priority 2022, published 2026)

Key:
[1] = target: T1, M3 muscarinic acetylcholine receptor (mAChR) (Homo sapiens, UniProt P20309); assay: FLIPR calcium assay (Fluo 8), M3-overexpressing CHO-K1 cells; assay type: cell-based; conditions: FLIPR calcium
T1 construct: expressed in transfected cells; host or cells: CHO-K1
Procedure, shortened: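 CHO-K1 cells overexpressing each human receptor seeded at 15,000 per well, grown overnight at 37° C., 5% CO2, then loaded with Fluo-8 for 30 min. Compounds in HBSS added and calcium response read on FLIPR; EC50 and Emax calculated per subtype.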

[2] = target: T2, M4 mAChR (Homo sapiens, UniProt P08173); assay: cAMP TR-FRET assay with forskolin, M4-overexpressing CHO-K1 cells; assay type: cell-based; conditions: cAMP TR-FRET with forskolin
T2 construct: expressed in transfected cells; host or cells: CHO-K1
T2 sequence (P08173 1-479): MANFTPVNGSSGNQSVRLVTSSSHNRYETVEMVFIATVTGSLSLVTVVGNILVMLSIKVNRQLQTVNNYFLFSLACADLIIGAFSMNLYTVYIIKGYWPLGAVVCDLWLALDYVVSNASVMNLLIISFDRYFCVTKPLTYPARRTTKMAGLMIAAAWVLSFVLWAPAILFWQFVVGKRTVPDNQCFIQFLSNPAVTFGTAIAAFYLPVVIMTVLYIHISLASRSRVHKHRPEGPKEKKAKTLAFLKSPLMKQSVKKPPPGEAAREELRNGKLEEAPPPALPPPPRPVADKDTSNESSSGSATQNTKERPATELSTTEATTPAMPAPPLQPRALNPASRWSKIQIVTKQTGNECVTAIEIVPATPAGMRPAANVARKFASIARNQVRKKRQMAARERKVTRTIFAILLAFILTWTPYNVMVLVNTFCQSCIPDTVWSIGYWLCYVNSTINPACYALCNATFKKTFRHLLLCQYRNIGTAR
Procedure, shortened: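 CHO-K1 cells overexpressing the receptor were stimulated with forskolin to raise cAMP, so that Gi-mediated agonist decreases could be measured. cAMP was quantified by TR-FRET competition between cellular cAMP and labelled donor for anti-cAMP antibody, giving potency and efficacy.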

T1 sequence (P20309 whole entry): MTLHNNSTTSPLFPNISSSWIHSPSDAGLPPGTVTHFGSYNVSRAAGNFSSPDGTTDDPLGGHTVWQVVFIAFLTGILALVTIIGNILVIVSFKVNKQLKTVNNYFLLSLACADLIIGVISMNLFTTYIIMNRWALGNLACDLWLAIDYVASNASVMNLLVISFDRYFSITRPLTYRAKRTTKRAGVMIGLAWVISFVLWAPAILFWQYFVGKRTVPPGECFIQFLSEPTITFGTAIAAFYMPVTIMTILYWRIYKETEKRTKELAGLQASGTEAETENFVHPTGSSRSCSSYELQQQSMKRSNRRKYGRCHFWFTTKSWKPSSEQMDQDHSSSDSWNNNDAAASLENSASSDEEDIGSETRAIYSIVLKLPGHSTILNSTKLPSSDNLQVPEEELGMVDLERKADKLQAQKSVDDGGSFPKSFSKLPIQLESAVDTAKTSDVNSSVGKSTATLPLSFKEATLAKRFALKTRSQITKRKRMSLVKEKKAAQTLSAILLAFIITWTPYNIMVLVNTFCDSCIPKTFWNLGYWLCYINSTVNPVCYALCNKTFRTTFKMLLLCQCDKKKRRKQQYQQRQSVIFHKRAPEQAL

Row | EC50 [1] [µM] | Emax [2] [%] | SMILES
1 | > 10 | 80 to 100 | CCOC(=O)N1CC2(CC[C@@H](N3CCN(c4cc(F)cnc4-c4cc(C)cnc4F)CC3)C2)C1 [Compound A108]
2 | > 10 | 80 to 100 | CCOC(=O)N1CC2(CC[C@@H](N3CCN(c4cc(F)cnc4-c4ccnc(OC)c4)CC3)C2)C1 [Compound A110]
3 | > 10 | 80 to 100 | CCOC(=O)N1CC2(CC[C@@H](N3CCN(c4cc(F)cnc4-c4cnc(OC)c(C)c4)CC3)C2)C1 [Compound A111]
4 | > 10 | 80 to 100 | CCOC(=O)N1CC2(CC[C@@H](N3CCN(c4cc(F)cnc4-c4ccc(OC)c(F)c4)CC3)C2)C1 [Compound A112]
5 | > 10 | 80 to 100 | CCOC(=O)N1CC2(CC[C@@H](N3CCN(c4cc(F)cnc4-c4ccnc(F)c4C)CC3)C2)C1 [Compound A114]
6 | > 10 | 80 to 100 | CCOC(=O)N1CC2(CC[C@@H](N3CCN(c4cc(F)cnc4-c4ccc(C)nc4OC)CC3)C2)C1 [Compound A116]
7 | > 10 | 80 to 100 | CCOC(=O)N1CC2(CC[C@@H](N3CCN(c4cc(F)cnc4-c4cc(F)nc(F)c4)CC3)C2)C1 [Compound A119]
8 | > 10 | 80 to 100 | CCOC(=O)N1CC2(CC[C@@H](N3CCN(c4cc(F)cnc4-c4ccn(C)n4)CC3)C2)C1 [Compound A120]
9 | > 10 | 80 to 100 | CCOC(=O)N1CC2(CC[C@@H](N3CCN(c4cc(F)cnc4-c4cncc(OCC)c4)CC3)C2)C1 [Compound A122]
10 | > 10 | 80 to 100 | CCOC(=O)N1CC2(CC[C@@H](N3CCN(c4cc(F)cnc4-c4cc(C)nc(F)c4)CC3)C2)C1 [Compound A125]
11 | > 10 | 80 to 100 | CCOC(=O)N1CC2(CC[C@@H](N3CCN(c4cc(F)cnc4-c4cnc5c(cnn5C)c4)CC3)C2)C1 [Compound A129]
12 | > 10 | 80 to 100 | CCOC(=O)N1CC2(CC[C@@H](N3CCN(c4cc(F)cnc4-c4cnc(OCC)nc4)CC3)C2)C1 [Compound A132]

The remaining lines, values behind:

Row | SMILES | EC50 [1] [µM] | Emax [2] [%]
13 | CCOC(=O)N1CC2(CC[C@@H](N3CCN(c4cc(F)cnc4-c4cccnc4C)CC3)C2)C1 [Compound A109] | > 10 | 80 to 100
14 | CCOC(=O)N1CC2(CC[C@@H](N3CCN(c4cc(F)cnc4-c4ccc(F)cc4O)CC3)C2)C1 [Compound A115] | > 10 | 80 to 100
15 | CCOC(=O)N1CC2(CC[C@@H](N3CCN(c4cc(F)cnc4-c4cc(F)ccc4CO)CC3)C2)C1 [Compound A117] | > 10 | 80 to 100
16 | CCOC(=O)N1CC2(CC[C@@H](N3CCN(c4cc(F)cnc4-c4cccc(F)c4O)CC3)C2)C1 [Compound A118] | > 10 | 80 to 100
17 | CCOC(=O)N1CC2(CC[C@@H](N3CCN(c4cc(F)cnc4-c4ccn(CC)n4)CC3)C2)C1 [Compound A121] | > 10 | 80 to 100
18 | CCOC(=O)N1CC2(CC[C@@H](N3CCN(c4cc(F)cnc4-c4ccc(=O)n(C)c4)CC3)C2)C1 [Compound A123] | > 10 | 80 to 100
19 | CCOC(=O)N1CC2(CC[C@@H](N3CCN(c4cc(F)cnc4-c4cnc(N5CCC5)nc4)CC3)C2)C1 [Compound A124] | > 10 | 80 to 100
20 | CCOC(=O)N1CC2(CC[C@@H](N3CCN(c4cc(F)cnc4-c4cnn(C5COC5)c4)CC3)C2)C1 [Compound A126] | > 10 | 80 to 100
21 | CCOC(=O)N1CC2(CC[C@@H](N3CCN(c4cc(F)cnc4-c4cc(O)ccc4F)CC3)C2)C1 [Compound A127] | > 10 | 80 to 100
22 | CCOC(=O)N1CC2(CC[C@@H](N3CCN(c4cc(F)cnc4-c4cccc(F)n4)CC3)C2)C1 [Compound A128] | > 10 | 80 to 100
23 | CCOC(=O)N1CC2(CC[C@@H](N3CCN(c4cc(F)cnc4-c4ccc5c(c4)OCO5)CC3)C2)C1 [Compound A130] | > 10 | 80 to 100
24 | CCOC(=O)N1CC2(CC[C@@H](N3CCN(c4cc(F)cnc4-c4ccc5c(c4)ncn5C)CC3)C2)C1 [Compound A131] | > 10 | 80 to 100
